Where a SMILES comes first, the peptide text is derived from it.

Experimental findings from US5593966A, “Peptide derivatives of cytochrome b558 and their use as medicaments” (The United States of America as represented by the …, priority 1990, dated 1997) are described below.

Assay [1] concerns the target T1, 47 kDa cytosolic oxidase factor (Homo sapiens, UniProt P14598).
T1 construct: endogenous in cells; host or cells: neutrophil cytosol, with neutrophil membrane, in the cell-free reaction
T1 sequence (P14598 1-390): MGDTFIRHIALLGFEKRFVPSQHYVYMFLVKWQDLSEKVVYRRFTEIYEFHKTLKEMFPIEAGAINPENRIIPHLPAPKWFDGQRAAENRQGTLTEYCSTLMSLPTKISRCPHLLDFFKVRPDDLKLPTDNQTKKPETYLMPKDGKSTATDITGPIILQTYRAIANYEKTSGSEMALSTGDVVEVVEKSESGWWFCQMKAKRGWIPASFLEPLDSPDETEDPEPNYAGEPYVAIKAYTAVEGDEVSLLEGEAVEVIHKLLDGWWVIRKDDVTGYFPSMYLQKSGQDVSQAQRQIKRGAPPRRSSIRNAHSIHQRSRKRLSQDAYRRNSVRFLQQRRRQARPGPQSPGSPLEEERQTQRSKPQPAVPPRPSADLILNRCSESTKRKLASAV
The experiment in a line: 47 kDa cytosolic protein phosphorylation in the cell-free reaction (immunoprecipitation, SDS-PAGE, autoradiography). In kind it is biochemical. Conditions: densitometry of autoradiograms; 3 independent experiments; read-out: Half-maximal inhibitory concentration, 47 kDa protein phosphorylation. On the procedure: Components of the cell-free phosphorylation reaction were identical to those for arachidonate-stimulated O2^- generation except for omission of acetylferricytochrome c and inclusion of γ-[^32 P]ATP (0.1 μCi/ml, sp. act. 5000 Ci/mmol). Twenty min after addition of arachidonate, aliquots of the cell-free reaction mixture were mixed with an equal volume of iced "stopping" buffer (150 mM NaCl, 10 mM EDTA, 1% deoxycholate, 1% NP-40, 50 mMNaF, 1 mMNa vanadate, 10 mM Tris, pH 7.4). Proteins bound to rabbit antibodies raised against recombinant 47 kDa protein (Lomax et al, Science, 245, 409-412 (1989)), were precipitated with protein G-sepharose (Harlow et al, Antibodies: A Laboratory Manual (Cold Spring Harbor Laboratory), 465-468 (1988)) and analyzed by SDS-PAGE and autoradiography with intensifying screens.
After stimulation of the neutrophil respiratory burst with phorbol esters the 47 kDa cytosolic oxidase factor is multiply phosphorylated and associates with plasma membrane. […] The immunoprecipitated proteins were analyzed by SDS-PAGE and autoradiography as described above. […] The half-maximal inhibitory concentration of 91 kDa cytochrome b558 carboxyterminal peptide determined by densitometry of autoradiograms was in the range of 25-50 μM in each of 3 independent experiments.

For assay [2], the target named is T2, NADPH oxidase (Homo sapiens, UniProt P14598).
T2 construct: Neutrophils were electropermeabilized as described; endogenous in cells; host or cells: electropermeabilized peripheral blood neutrophils (PMN), stimulated with PMA or fMLP
T2 sequence (P14598 1-390): T1 sequence (P14598 1-390)
As to the kind of experiment: Cell-free NADPH oxidase assay (arachidonate-stimulated O2 generation, neutrophil membrane plus cytosol). In kind it is biochemical. Conditions: peptide and arachidonate added simultaneously; 5 experiments; IC50 by interpolation; read-out: Mean IC50 ±SEM, inhibition of NADPH oxidase activation. On the procedure: Neutrophils were isolated from peripheral blood and cytosol and membrane fractions were prepared by differential centrifugation as previously described (Nunoi et al, Science, 242, 1298-1301 (1988)). Typical yields of cytosol and membrane proteins obtained were 2.8±0.1 mg/10^8 cell equivalents and 1.5±0.1 μg/10^6 cell equivalents, respectively (mean±SD, 3 separate preparations). The cell-free assay of O2 generation was modified as follows: wells contained 2.5-5.0×10^5cell equivalents neutrophil membrane, 10^6 cell equivalents neutrophil cytosol in a final volume of 100 μl reaction mixture (150 μM acetylated ferricytochrome c (11), 4 mM MgCl2, 10 μM FAD, 1 mM EGTA, 200 μM NADPH, 40 μM arachidonic acid, 10 μM GTPγ S, ±25 μg/ml superoxide dismutase in 75 mM potassium phosphate, pH 7.0). Because membrane preparations varied in activity, the amount of membrane added per well was adjusted to yield an arachidonate-stimulated O2 production of ≈0.4 nmol/min/well in the absence of synthetic peptide. The maximal linear rate of superoxide dismutase-inhibitable acetylferricytochrome c reduction (ΔO.D. […]) was converted to nmol O2 generated/min using an instrument-corrected extinction coefficient derived empirically as described (Leslie, J. Immunol. Methods, 103, 253-259 (1987)). To measure oxidase inhibition by antibodies directed against the 91 kDa subunit of cytochrome b558 membranes were solubilized in 1% deoxycholate, incubated for 30 min on ice with an equal volume of serum at various dilutions. Diluting these samples 10-fold with H2 O lowered the detergent concentration below the CMC and allowed sedimentation (130,000 g×30 min) of an oxidase-competent membrane fraction. This fraction was resolubilized in deoxycholate, and assayed for arachidonate-stimulatedO2 generation in the presence of cytosol.
In Table 1 above, the cell-free assay of O2 generation contained 2.5-5.0×10^5 cell equivalents of neutrophil (PMN) membrane, 10^6 cell equivalents PMN cytosol in a final volume of 100 μl reaction mixture. Because membrane preparations varied in activity, the amount of membrane added per well was adjusted to yield an arachidonate-stimulated O2 production of ≈0.4 nmol/min/well in the absence of synthetic peptide. Data represent the mean percent inhibition obtained in n experiments (each performed in duplicate) in the presence of 100 μM synthetic peptide compared to a simultaneous buffer control.

Consider `CC[C@H](C)[C@H](NC(=O)[C@H](Cc1ccccc1)NC(=O)[C@H](Cc1c[nH]cn1)NC(=O)[C@@H](NC(=O)CNC(=O)[C@H](CCCNC(=N)N)NC(=O)[C@@H]1CCCN1C(=O)CNC(=O)[C@H](CO)NC(=O)[C@H](CCC(=O)O)NC(=O)[C@H](CO)NC(=O)[C@H](CC(N)=O)NC(=O)[C@H](CO)NC(=O)[C@@H](N)CS)C(C)C)C(=O)N[C@@H](Cc1ccccc1)C(=O)N[C@@H](CC(N)=O)C(=O)N[C@@H](CCCCN)C(=O)N[C@@H](CCC(=O)O)C(=O)N[C@@H](CC(N)=O)C(=O)N[C@@H](Cc1ccccc1)C(=O)O` (H-CSNSESGPRGVHFIFNKENF-OH), for which the values for the IC50 in assay [1] and in assay [2] were 25 to 50 µM and 32 ± 2 µM, respectively.
